Assay results from PubChem BioAssay (NCI).
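A five-concentration, 48-hour dose response in 96-well plates underlies each endpoint, interpolated linearly between surrounding concentrations. Definition used: TGI = concentration required for complete inhibition of growth.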

Legend:
Assay in all cases: NCI tumour cell line growth inhibition, 48 h
OVCAR-8 ovarian = tested on: OVCAR-8 ovarian
COLO 205 colon = tested on: COLO 205 colon
PC-3 prostate = tested on: PC-3 prostate
NCI-H23 lung = tested on: NCI-H23 lung
OVCAR-5 ovarian = tested on: OVCAR-5 ovarian
K-562 leukemia = tested on: K-562 leukemia
SK-MEL-5 melanoma = tested on: SK-MEL-5 melanoma
KM12 colon = tested on: KM12 colon
DU-145 prostate = tested on: DU-145 prostate
HCT-15 colon = tested on: HCT-15 colon
SK-OV-3 ovarian = tested on: SK-OV-3 ovarian
MDA-MB-231 breast = tested on: MDA-MB-231 breast
LOX IMVI melanoma = tested on: LOX IMVI melanoma
TK-10 renal = tested on: TK-10 renal
SF-268 CNS = tested on: SF-268 CNS
CAKI-1 renal = tested on: CAKI-1 renal
SW-620 colon = tested on: SW-620 colon
T-47D breast = tested on: T-47D breast
HL-60(TB) leukemia = tested on: HL-60(TB) leukemia
A549 NSCLC = tested on: A549 NSCLC
NCI-H522 lung = tested on: NCI-H522 lung
HCT-116 colon = tested on: HCT-116 colon
SR leukemia = tested on: SR leukemia
SNB-75 CNS = tested on: SNB-75 CNS
HT29 colon = tested on: HT29 colon
U251 CNS = tested on: U251 CNS
A498 renal = tested on: A498 renal
EKVX NSCLC = tested on: EKVX NSCLC
MALME-3M melanoma = tested on: MALME-3M melanoma
UO-31 renal = tested on: UO-31 renal
OVCAR-3 ovarian = tested on: OVCAR-3 ovarian
HCC-2998 colon = tested on: HCC-2998 colon
SNB-19 CNS = tested on: SNB-19 CNS
HS 578T breast = tested on: HS 578T breast
NCI-H460 lung = tested on: NCI-H460 lung
CCRF-CEM leukemia = tested on: CCRF-CEM leukemia
BT-549 breast = tested on: BT-549 breast
NCI/ADR-RES ovarian = tested on: NCI/ADR-RES ovarian
MDA-N = tested on: MDA-N
MCF7 breast = tested on: MCF7 breast
SK-MEL-28 melanoma = tested on: SK-MEL-28 melanoma
IGROV1 ovarian = tested on: IGROV1 ovarian
SF-539 CNS = tested on: SF-539 CNS
SN12C renal = tested on: SN12C renal
OVCAR-4 ovarian = tested on: OVCAR-4 ovarian
UACC-62 melanoma = tested on: UACC-62 melanoma
MOLT-4 leukemia = tested on: MOLT-4 leukemia
HOP-62 NSCLC = tested on: HOP-62 NSCLC
RPMI-8226 leukemia = tested on: RPMI-8226 leukemia
MDA-MB-435 = tested on: MDA-MB-435
SK-MEL-2 melanoma = tested on: SK-MEL-2 melanoma
786-0 renal = tested on: 786-0 renal
NCI-H226 lung = tested on: NCI-H226 lung
ACHN renal = tested on: ACHN renal
UACC-257 melanoma = tested on: UACC-257 melanoma
SF-295 CNS = tested on: SF-295 CNS
HOP-92 NSCLC = tested on: HOP-92 NSCLC
M14 melanoma = tested on: M14 melanoma
RXF 393 renal = tested on: RXF 393 renal

With `COC1C(O)CC(OC2C(C)OC(Oc3cc(O)c4c(O)c5c(cc4c3)C[C@@H]([C@H](OC)C(=O)[C@@H](O)[C@@H](C)O)[C@H](OC3CC(OC4CC(OC6CC(C)(O)C(O)C(C)O6)C(O)C(C)O4)C(O)C(C)O3)C5=O)CC2OC(C)=O)OC1C` (some centres not stated) as the compound, how does the TGI (OVCAR-8 ovarian) read?
The TGI was greater than 100 µM.

And the TGI (COLO 205 colon)?
The TGI was greater than 100 µM.

What about the TGI (PC-3 prostate) of the same compound?
Its TGI is greater than 100 µM.

What about the TGI (NCI-H23 lung) of the same compound?
Its TGI is greater than 100 µM.

What about the TGI (OVCAR-5 ovarian) of the same compound?
Its TGI is greater than 100 µM.

And the TGI (K-562 leukemia)?
The TGI was greater than 100 µM.

What about the TGI (SK-MEL-5 melanoma) of the same compound?
The TGI was greater than 100 µM.

And the TGI (KM12 colon)?
Its TGI is greater than 100 µM.

What about the TGI (DU-145 prostate) of the same compound?
Its TGI is greater than 100 µM.

What about the TGI (HCT-15 colon) of the same compound?
The TGI was greater than 100 µM.

And the TGI (SK-OV-3 ovarian)?
The TGI was greater than 100 µM.

And the TGI (MDA-MB-231 breast)?
Its TGI is greater than 100 µM.

What about the TGI (LOX IMVI melanoma) of the same compound?
The TGI was greater than 100 µM.

What about the TGI (TK-10 renal) of the same compound?
The TGI was greater than 100 µM.

What about the TGI (SF-268 CNS) of the same compound?
Its TGI is greater than 100 µM.

And the TGI (CAKI-1 renal)?
Its TGI is greater than 100 µM.

And the TGI (SW-620 colon)?
Its TGI is greater than 100 µM.

And the TGI (T-47D breast)?
Its TGI is greater than 100 µM.

And the TGI (HL-60(TB) leukemia)?
Its TGI is greater than 100 µM.

And the TGI (A549 NSCLC)?
Its TGI is greater than 100 µM.

What about the TGI (NCI-H522 lung) of the same compound?
The TGI was greater than 100 µM.

What about the TGI (HCT-116 colon) of the same compound?
Its TGI is greater than 100 µM.

What about the TGI (SR leukemia) of the same compound?
The TGI was greater than 100 µM.

What about the TGI (SNB-75 CNS) of the same compound?
Its TGI is greater than 100 µM.

And the TGI (HT29 colon)?
The TGI was greater than 100 µM.

And the TGI (U251 CNS)?
The TGI was greater than 100 µM.

And the TGI (A498 renal)?
The TGI was greater than 100 µM.

And the TGI (EKVX NSCLC)?
Its TGI is greater than 100 µM.

And the TGI (MALME-3M melanoma)?
Its TGI is greater than 100 µM.

And the TGI (UO-31 renal)?
Its TGI is greater than 100 µM.

What about the TGI (OVCAR-3 ovarian) of the same compound?
Its TGI is greater than 100 µM.

And the TGI (HCC-2998 colon)?
Its TGI is greater than 100 µM.

What about the TGI (SNB-19 CNS) of the same compound?
Its TGI is greater than 100 µM.

And the TGI (HS 578T breast)?
The TGI was greater than 100 µM.

And the TGI (NCI-H460 lung)?
The TGI was greater than 100 µM.

What about the TGI (CCRF-CEM leukemia) of the same compound?
The TGI was greater than 100 µM.

And the TGI (BT-549 breast)?
Its TGI is greater than 100 µM.

What about the TGI (NCI/ADR-RES ovarian) of the same compound?
Its TGI is greater than 100 µM.

And the TGI (MDA-N)?
Its TGI is greater than 100 µM.

And the TGI (MCF7 breast)?
Its TGI is greater than 100 µM.

What about the TGI (SK-MEL-28 melanoma) of the same compound?
Its TGI is greater than 100 µM.

What about the TGI (IGROV1 ovarian) of the same compound?
Its TGI is greater than 100 µM.

What about the TGI (SF-539 CNS) of the same compound?
Its TGI is greater than 100 µM.

And the TGI (SN12C renal)?
The TGI was greater than 100 µM.

And the TGI (OVCAR-4 ovarian)?
The TGI was greater than 100 µM.

What about the TGI (UACC-62 melanoma) of the same compound?
The TGI was greater than 100 µM.

What about the TGI (MOLT-4 leukemia) of the same compound?
Its TGI is greater than 100 µM.

And the TGI (HOP-62 NSCLC)?
Its TGI is greater than 100 µM.

What about the TGI (RPMI-8226 leukemia) of the same compound?
Its TGI is greater than 100 µM.

And the TGI (MDA-MB-435)?
Its TGI is greater than 100 µM.

What about the TGI (SK-MEL-2 melanoma) of the same compound?
The TGI was greater than 100 µM.

And the TGI (786-0 renal)?
The TGI was greater than 100 µM.

What about the TGI (NCI-H226 lung) of the same compound?
The TGI was greater than 100 µM.

And the TGI (ACHN renal)?
The TGI was greater than 100 µM.

What does the source list for `Brc1ccc(N=NN2CCCCC2)cc1`?
TGI (OVCAR-8 ovarian): > 100 µM; TGI (COLO 205 colon): > 100 µM; TGI (PC-3 prostate): > 100 µM; TGI (UACC-257 melanoma): > 100 µM; TGI (NCI-H23 lung): > 100 µM; TGI (OVCAR-5 ovarian): > 100 µM; TGI (K-562 leukemia): > 100 µM; TGI (SK-MEL-5 melanoma): > 100 µM; TGI (KM12 colon): > 100 µM; TGI (DU-145 prostate): > 100 µM; TGI (HCT-15 colon): > 100 µM; TGI (SK-OV-3 ovarian): > 100 µM; TGI (MDA-MB-231 breast): > 100 µM; TGI (LOX IMVI melanoma): > 100 µM; TGI (TK-10 renal): > 100 µM; TGI (SF-268 CNS): > 100 µM; TGI (CAKI-1 renal): > 100 µM; TGI (SW-620 colon): > 100 µM; TGI (T-47D breast): > 100 µM; TGI (NCI-H522 lung): > 100 µM; TGI (HCT-116 colon): > 100 µM; TGI (SR leukemia): 41.7 µM; TGI (SF-295 CNS): > 100 µM; TGI (SNB-75 CNS): > 100 µM; TGI (U251 CNS): > 100 µM; TGI (HOP-92 NSCLC): > 100 µM; TGI (A498 renal): > 100 µM; TGI (EKVX NSCLC): > 100 µM; TGI (UO-31 renal): > 100 µM; TGI (OVCAR-3 ovarian): > 100 µM; TGI (SNB-19 CNS): > 100 µM; TGI (HS 578T breast): > 100 µM; TGI (NCI-H460 lung): > 100 µM; TGI (M14 melanoma): > 100 µM; TGI (CCRF-CEM leukemia): 56.9 µM; TGI (BT-549 breast): > 100 µM; TGI (NCI/ADR-RES ovarian): > 100 µM; TGI (MDA-N): > 100 µM; TGI (RXF 393 renal): > 100 µM; TGI (MCF7 breast): > 100 µM; TGI (IGROV1 ovarian): > 100 µM; TGI (SF-539 CNS): > 100 µM; TGI (SN12C renal): > 100 µM; TGI (OVCAR-4 ovarian): > 100 µM; TGI (UACC-62 melanoma): > 100 µM; TGI (MOLT-4 leukemia): 46.2 µM; TGI (HOP-62 NSCLC): > 100 µM; TGI (RPMI-8226 leukemia): 30.9 µM; TGI (MDA-MB-435): > 100 µM; TGI (SK-MEL-2 melanoma): 45.4 µM; TGI (786-0 renal): > 100 µM; TGI (NCI-H226 lung): > 100 µM; TGI (ACHN renal): > 100 µM
